Measurements taken from patent publication US20260284074A1, “ENT1 Inhibitors in Combination with Checkpoint Inhibitors” (iTeos Belgium SA, priority 2023, published 2026).
Entries after “also recorded” stand apart in the source; their conditions may differ.

Columns and labels:
MDA-MB-231 cells = experiment: MDA-MB-231 subcutaneous tumor model in humanized NCG mice; assay type: in vivo, mouse; details: day 51; Compound 1 30 mg/kg i.p. twice a day; nivolumab 10 mg/kg i.p. every 5 days
Description: The anti-tumor therapeutic efficacy of Compound 1 monotherapy, nivolumab monotherapy, and Compound 1-nivolumab combination therapy was assessed in ‘humanized’ mice with subcutaneous tumors resulting from the subcutaneous injection of MDA-MB-231 cells, a human triple-negative breast cancer cell line.
Human cell line xenograft experiments were performed at Transcure (France) and all associated animal procedures were reviewed and approved by the local ethics committee. The experiment was carried out with the NOD-Prkdc^em26cd52Il2rg^em26cd22/NjuCrl immunodeficient mouse strain (NCG from Charles River Laboratories, Wilmington, MA, USA). Four-week-old immunodeficient NCG mice were engrafted with cord-blood-derived human CD34^+ hematopoietic stem and progenitor cells (French Blood Institute, Paris, France) 2 days after chemical myeloablative treatment. Fourteen weeks after cell injection, engraftment level was monitored with the analysis of human CD45^+ cells among total blood leukocytes by flow cytometry (Attune, Life Technologies/Thermo Fisher Scientific, Waltham, MA, USA). […]
All the animals used were monitored daily, checking their clinical signs of distress and body weight and tumors were measured three times a week using an electronic caliper. The tumor volume was determined by applying the formula Length×(Width)^2×0.5. […]

[1] = tested on: tumor infiltrating T cells; experiment: T cell proliferation in dissociated human tumor cell suspension cultures with ATP; assay type: cell-based; details: 500 μM ATP; CD3/CD28 microbeads and IL-2; Compound 1 300 nM; anti-PD-1 10 μg/mL; 3 days
Description: Human tumors were dissociated, and cells were CFSE-labelled and stimulated with CD3/CD28 microbeads and IL-2 in the presence of 500 μM of ATP as a source of adenosine.
Human tumor pieces were rinsed with cold PBS and cut into 1 to 2 mm fragments with a scalpel blade and transferred into GentleMACS C tubes. Dissociation of the tissue was completed with the Tumor Dissociation kit (Miltenyi Biotec) according to the manufacturer's instruction. Briefly, 5 mL of dissociation solution—containing 200 μL of enzyme H, 20 μL of enzyme R and 25 μL of enzyme A and RPMI until 5 mL—was added per gram of tumor. The tube was placed in the gentleMACS dissociator and the 1st program was run. An incubation step of 30 minutes at 37° C. was applied with rotation (MACSmix tube rotator). After this incubation, a quick centrifugation (30×rcf, 1 min) was performed, the supernatant containing dissociated cells was collected in a new tube containing FBS (30% of the total volume with supernatant) and placed at 4° C. […] A short centrifugation was performed, the cells in supernatant were pooled with the 1st collection and filtered through a 100 μm cell strainer which was washed with 10 mL RPMI 10% FBS 2% P/S. After centrifugation at 350×rcf for 10 min, cells were resuspended in 20 mL RPMI 10% FBS 2% P/S and counted with a haemocytometer. […]

SMILES: COc1cc(C(=O)O[C@@H]2CCCOc3cc(cc(OC)c3OC)C(=O)NCCCN3CCCN(CC2)CC3)cc(OC)c1OC [Compound 1, (12R)-7^4,7^5-dimethoxy-6-oxo-8-oxa-5-aza-1(1,4)-diazepana-7(1,3)-benzenacyclotetradecaphane-12-yl 3,4,5-trimethoxybenzoate]
- Tumor volume compared with vehicle group (MDA-MB-231 cells): not statistically significantly different
- Rescue of T cell proliferation suppressed by ATP [1]: restored; also recorded: partially reversed
